Reference: paper PMC2361324, “Phase 1 trial of the antiangiogenic peptide ATN-161 (Ac-PHSCN-NH2), a beta integrin antagonist, in patients with solid tumours” (British Journal of Cancer, 2006)

Tests used:
[1] = Serological antibody immune response against ATN-161 in patients; format: in vivo, human
[2] = tested on: DU145 prostate cancer cell line; settings: in vitro, human DU145 prostate cancer cell line; ref Livant et al, 2000b; cited from earlier work
Excerpt: (§1) In vitro, ATN-161 inhibited PHSRN-induced basement membrane invasion of human (DU145) and rat (MLL) prostate cancer cell lines ([Livant et al, 2000b]).

[3] = tested on: MLL prostate cancer cell line; settings: in vitro, rat MLL prostate cancer cell line; ref Livant et al, 2000b; cited from earlier work
Excerpt: as §1

[4] = animal studies, preclinical; ref not given; cited from earlier work
[5] = Plasma pharmacokinetics in phase 1 trial; settings: human, iv; for Vd: patients, Day 1, HPLC-MS/MS, noncompartmental, cohort mean
Procedure: Blood samples for PK analysis were collected in EDTA-coated tubes on Day 1 for all patients preinfusion, at the end of infusion, and at 5, 10, 15, 30, 45, 60, 90, 120, 150, 180, 240, 400, 460 and 520 min after infusion. Samples were immediately centrifuged, and the plasma was separated and stored at −20°C prior to analysis.
Pharmacokinetic data were modelled using a noncompartmental approach to estimate individual subject values for the following parameters: maximum observed concentration (Cmax), time of the maximum observed concentration (Tmax), volume of distribution at steady state (VSS), terminal elimination half-life (t1/2), total systemic clearance (CL), area under the plasma concentration-time curve (AUC), and CLr. For these parameters the mean and s.d. coefficient of variation were calculated.
Descriptive PKs parameters were determined by standard model independent methods for infusion administration ([Perrier and Gibaldi, 1982]) from plasma concentrations in each individual patient. Plasma and urine concentrations were rounded to the nearest [drawing 1] ng ml^−1 before the calculations. Plasma samples with concentrations below the quantifiable limit of 50.0 ng ml^−1 (BQL) were assigned values of zero for generation of mean and s.d. plasma concentrations. For PKs calculations, BQL was treated as zero up to the first quantifiable plasma concentration and then treated as an empty value thereafter. Urine samples reported as BQL (⩽50.0 ng ml^−1) were treated as zero for all calculations. Actual patient blood collection sampling times relative to the start of infusion were used for PKs calculations; however, scheduled collection times were used for urinary excretion data and graphical presentations of all data.

Ac-PHSCN-NH2 [ATN-161, Ac-PHSCN-NH2]
Antibody immune response against ATN-161 [1]: no serological evidence
PHSRN-induced basement membrane invasion [2]: inhibited
PHSRN-induced basement membrane invasion [3]: inhibited
Immunogenicity [4]: not immunogenic
AUC(0-t) ([5]; 0.25 mg/kg): 3420 ng·h/mL
Cmax ([5]; 0.25 mg/kg): 1120 ng/mL
MRT ([5]; 0.25 mg/kg): 5.5 h
clearance ([5]; 0.25 mg/kg): 1.33 mL/min/kg
half-life ([5]; 0.25 mg/kg): 4.4 h
Vd ([5]; 0.25 mg/kg, Vd (volume of distribution), 0.25 mg kg^−1 10-min i.v. infusion): 0.48 L/kg
Vd ([5]; 0.25 mg/kg, Vss (volume of distribution at steady state), 0.25 mg kg^−1 10-min i.v. infusion): 0.33 L/kg
AUC(0-t) ([5]; 0.5 mg/kg): 3610 ng·h/mL
Cmax ([5]; 0.5 mg/kg): 5790 ng/mL
MRT ([5]; 0.5 mg/kg): 3.3 h
clearance ([5]; 0.5 mg/kg): 2.83 mL/min/kg
half-life ([5]; 0.5 mg/kg): 3.2 h
Vd ([5]; 0.5 mg/kg, Vd (volume of distribution), 0.5 mg kg^−1 10-min i.v. infusion): 0.87 L/kg
Vd ([5]; 0.5 mg/kg, Vss (volume of distribution at steady state), 0.5 mg kg^−1 10-min i.v. infusion): 0.47 L/kg
AUC(0-t) ([5]; 1 mg/kg): 1450 ng·h/mL
Cmax ([5]; 1 mg/kg): 3800 ng/mL
MRT ([5]; 1 mg/kg): 3.8 h
clearance ([5]; 1 mg/kg): 10.2 mL/min/kg
half-life ([5]; 1 mg/kg): 3.9 h
Vd ([5]; 1 mg/kg, Vd (volume of distribution), 1 mg kg^−1 10-min i.v. infusion): 3.38 L/kg
Vd ([5]; 1 mg/kg, Vss (volume of distribution at steady state), 1 mg kg^−1 10-min i.v. infusion): 2.3 L/kg
AUC(0-t) ([5]; 2 mg/kg): 3320 ng·h/mL
Cmax ([5]; 2 mg/kg): 15700 ng/mL
MRT ([5]; 2 mg/kg): 2.5 h
clearance ([5]; 2 mg/kg): 11.5 mL/min/kg
half-life ([5]; 2 mg/kg): 3.5 h
Vd ([5]; 2 mg/kg, Vd (volume of distribution), 2 mg kg^−1 10-min i.v. infusion): 3.38 L/kg
Vd ([5]; 2 mg/kg, Vss (volume of distribution at steady state), 2 mg kg^−1 10-min i.v. infusion): 1.93 L/kg
AUC(0-t) ([5]; 4 mg/kg): 3710 ng·h/mL
Cmax ([5]; 4 mg/kg): 5480 ng/mL
MRT ([5]; 4 mg/kg): 4.8 h
clearance ([5]; 4 mg/kg): 14.5 mL/min/kg
half-life ([5]; 4 mg/kg): 4.3 h
Vd ([5]; 4 mg/kg, Vd (volume of distribution), 4 mg kg^−1 10-min i.v. infusion): 5.59 L/kg
Vd ([5]; 4 mg/kg, Vss (volume of distribution at steady state), 4 mg kg^−1 10-min i.v. infusion): 3.82 L/kg
AUC(0-t) ([5]; 8 mg/kg): 34200 ng·h/mL
Cmax ([5]; 8 mg/kg): 34400 ng/mL
MRT ([5]; 8 mg/kg): 3.4 h
clearance ([5]; 8 mg/kg): 7 mL/min/kg
half-life ([5]; 8 mg/kg): 3.3 h
Vd ([5]; 8 mg/kg, Vd (volume of distribution), 8 mg kg^−1 10-min i.v. infusion): 2.14 L/kg
Vd ([5]; 8 mg/kg, Vss (volume of distribution at steady state), 8 mg kg^−1 10-min i.v. infusion): 1.32 L/kg
AUC(0-t) ([5]; 16 mg/kg): 54900 ng·h/mL
Cmax ([5]; 16 mg/kg): 72700 ng/mL
MRT ([5]; 16 mg/kg): 5.3 h
clearance ([5]; 16 mg/kg): 5.83 mL/min/kg
half-life ([5]; 16 mg/kg): 5 h
Vd ([5]; 16 mg/kg, Vd (volume of distribution), 16 mg kg^−1 10-min i.v. infusion): 2.36 L/kg
Vd ([5]; 16 mg/kg, Vss (volume of distribution at steady state), 16 mg kg^−1 10-min i.v. infusion): 1.61 L/kg
